Entries after “also recorded” stand apart in the source; their conditions may differ.
Key:
HL-60 cells = assay: Cell viability assay (MTT/MTS); format: cell-based, human; conditions: HL-60, 48-72 h
Protocol: FIG. 17: SALL4 peptide reduces the viability of leukemic HL-60 cells. HL60 human acute promyelocytic leukemia cells (ATCC), were cultured in RPMI medium with 10% FBS (Invitrogen). 5000 cells/well were seeded in 96 well plate. Peptides: MSRRKQAKPQHI-wt (SEQ ID NO: 1) and MSRRAQAKPQHI-mutant (SEQ ID NO: 6) were synthesized by Biosynthesis Inc. to 85% purity. Peptides and TSA were re-suspended in PBS and added to the final concentration as indicated. WT peptide was re-added 24 hours after the initial addition as indicated. Experiment was performed in triplicate. MTS assay was performed by adding 20 ul of the CellTiter 96® AQueous One Solution Reagent (Promega) directly to the cells in medium, incubating for 2 hours and then recording absorbance at 490 nm with a 96-well plate reader. The quantity of formazan product as measured by the amount of 490 nm absorbance is directly proportional to the number of living cells in culture.
Cell viability assay (MTT) (Invitrogen) was performed according to the manufacturer's instructions. Briefly—10000 cells were seeded in 100 ul medium in 96 well plates. The next day cells were treated as indicated on the figures. At the designated time after the treatment 20 ul of 5 mg/ml MTT solution was added to each well. After 3.5 h incubation at 37 C the medium was removed and the reaction was terminated with a solution of 4 mM HCl, 0.1% Nondet P-40 (NP40) all in isopropanol in dark on orbital shaker for […]. at room temperature. The absorbance was read at 590 nm with a reference filter of 620 nm in Spectromax M3 (ABI) spectrophotometer.
Multiple cell lines with or without SALL4 expression were chosen to test the biological effect(s) of this wt peptide. Wt or its control (Scr or Mut) peptide was delivered into tumor cells at various concentrations, and their effects on cells were evaluated at 48 or 72 hours post treatment by a MTT assay (Manufacture name). […] Since, as proposed herein, wt peptide can compete with SALL4 and release it from recruiting HDAC complex NuRD, the wt peptide would likely work as a HDAC inhibitor. Therefore, as a positive control, TSA, a broad HDAC inhibitor, was used in the same group of experiments along with the wt and Scr peptide.
Multiple leukemic and solid tumor cancer cell lines with high or low/no SALL4 expression (FIG. 10A) were chosen to test the biological effect(s) of the wild type peptide. Wild type or scrambled peptide was delivered into tumor cells at various concentrations, and their effects on cells were evaluated 72 hours post-treatment by the MTS cell viability assay. […] The effect of wild type peptide is SALL4-specific, as it had no effect on KBM5, an AML cell line with undetectable endogenous SALL4 expression. […] Therefore, expression of PTEN was evaluated in AN3CA cells along with other cell lines. […]

HDAC = HDAC activity assay of peptide pull-down complex (SNU-398 nuclear extracts); format: biochemical, human; conditions: compared to IgG control
Protocol: Assay was performed with the Fluorescent HDAC Assay Kit (Active Motif) having the following modifications: Following the pull down described in Western Blotting section the proteins bound to the beads were eluted in buffer containing 20 mM HEPES (pH 7.5) 350 mM NaCl, 20% glycerol, 1% Igepal CA-630, 1 mM MgCl2, 5 mM DTT and Protease inhibitors (Sigma). The eluates were used as an HDAC enzyme source in an enzymatic reaction for 2 h at 37 C. The HDAC reactions were performed twice on various samples, and each time in triplicate.
Next tested was whether this wt 12-AA could compete with SALL4 in interacting with NuRD. A hepatocellular carcinoma cell line SNU-398 with abundant SALL4 expression was chosen for the following groups of experiences. Whether the wt 12-AA or its control (Mut and Scr) can bind to HDAC1 and HDAC2, the two NuRD components, was first evaluated. […] The histone deacetylase activity of the peptide pull-down complex was then measured using a Fluorescent Assay kit (Active Motif) (FIG. 1D). […]
First evaluated was whether the wild type peptide or the mutant or scrambled controls could bind to HDAC1 and HDAC2, which comprise part of the NuRD complex 38. […] To test this possibility, the histone deacetylase activity of the peptide pull-down complex was measured using a fluorescent assay kit (FIG. 8C). […]

Substance: H-MSRRKQAKPQHI-OH [wt peptide, MSRRKQAKPQHI]
- cell viability (HL-60 cells): decreased cell viability
- cell viability (HL-60 cells; listed as WT): decrease in cell viability
- cell viability (HL-60 cells; listed as wild type peptide): decreased cell viability; also recorded: reduces the number of the living cells
- HDAC activity of peptide pull-down complex (HDAC): the most HDAC activity

Substance: Scr peptide: same 12 amino acids as the wt peptide, but in a scrambled sequence; negative control (SRMRQKIHPKIQ) [reference compound]
- cell viability (HL-60 cells): remained unaffected
- HDAC activity of peptide pull-down complex (HDAC): no HDAC activity

From US9365851B2, “Spalt-like transcription factor 4 (SALL4) and uses thereof” (National University of Singapore, priority 2011, dated 2016)
